Laboratory results published in ChEMBL document CHEMBL3045070, “Identification of in vitro inhibitors of Mycobacterium tuberculosis Lysine -aminotransferase by pharmacophore mapping and three-dimensional flexible searches” (Med Chem Res, 2008).
The source made the active and inactive calls. The calls are words filed in the database; no cut-off is given here.

Assays:
[1] = molecular target: T1, L-lysine-epsilon aminotransferase (Mycobacterium tuberculosis) (UniProt P9WQ77); assay: Inhibition of Mycobacterium tuberculosis lysine-epsilon aminotransferase at 400 uM
T1 sequence (whole entry): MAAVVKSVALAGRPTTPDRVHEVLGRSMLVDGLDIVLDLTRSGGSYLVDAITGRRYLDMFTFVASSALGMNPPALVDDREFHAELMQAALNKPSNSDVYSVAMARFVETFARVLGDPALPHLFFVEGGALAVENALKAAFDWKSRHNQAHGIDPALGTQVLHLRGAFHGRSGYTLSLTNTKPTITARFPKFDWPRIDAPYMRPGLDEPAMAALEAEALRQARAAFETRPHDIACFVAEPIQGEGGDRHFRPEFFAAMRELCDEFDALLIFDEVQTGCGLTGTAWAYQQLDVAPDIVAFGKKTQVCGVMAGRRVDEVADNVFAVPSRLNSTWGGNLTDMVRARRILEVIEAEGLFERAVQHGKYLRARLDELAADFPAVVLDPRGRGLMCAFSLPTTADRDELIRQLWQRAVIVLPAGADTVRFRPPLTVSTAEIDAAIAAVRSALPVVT

[2] = molecular target: T1, L-lysine-epsilon aminotransferase (Mycobacterium tuberculosis); assay: Inhibition of Mycobacterium tuberculosis lysine-epsilon aminotransferase at 600 uM

Compound	inhibition [1]	inhibition [2] [%]
CN(CC(O)c1ccccc1)CC1CCCCN1C (configuration not stated)	Active	
COc1ccc(CC(=O)NCC2c3[nH]c4ccccc4c3CC3C(=O)N(CCc4ccc(OC)c(OC)c4)C(=O)N32)cc1 (configuration not stated)		60
